Several values for one entry are separate records, joined by “and”; a condition that tells them apart may be missing. Equal values may be shown once. Read-outs that look alike come from different tables or passages of the source.
Experiments:
[1] = target: T1, catalytic domain human MMP-14 (Homo sapiens, UniProt P50281); assay: MMP-14 fluorogenic inhibition assay; assay type: biochemical; settings: read-out: Calculated Ki(nM) MMP-14
T1 construct: made in house
Protocol: (§1) All enzymes were pre-activated at 37° C. with aminophenylmercuric acetate (APMA) or trypsin before being made up to the final concentrations used in the assay. MMP-1 (30 nM) was activated with 0.93 mM APMA for 20 minutes, MMP-2 (30 nM) was activated with 1.32 mM APMA for 1 hour, MMP-3 (1010 nM) was activated with 1.81 mM APMA for 3 hours or heat activated at 55° C. for three hours, MMP-9 (100 nM) was activated with 2 mM APMA for 2 hours, human MMP-13 (100 nM) was activated with 2 mM APMA for 2 hours, and MMP-14 (900 nM) was activated with 0.9 ng/ml trypsin for 25 minutes, followed by the addition of 4.5 ng/ml trypsin inhibitor.
(§2) For MMP-1, the assay buffer used was 50 mM Tris, 200 mM NaCl, 5 mM CaCl2, 20 μM ZnCl2, 0.05% (w/v) Brij 35, pH 7.5. […] For MMP-13, the assay buffer used was 50 mM Tris, pH 7.5, 200 mM NaCl, 5 mM CaCl2, […] and 0.02% (w/v) Brij 35. For MMP-14, the assay buffer used was 50 mM Tris, 100 mM NaCl, 10 mM CaCl2, 0.25% (w/v) Brij 35, pH 7.5.
MMP-14 inhibition was assayed by incubating activated catalytic domain human MMP-14 at 1 nM in assay buffer with 10 μM Mca-Pro-Leu-Gly-Leu-Dpa-Ala-Arg-NH2 and six concentrations of inhibitor. The incubation was performed at 37° C. for 60 minutes.
(§3) The final assay concentrations of inhibitors used in the MMP-1 assays to determine Ki were 50, 40, 30, 20, 10 and 5 μM. For MMP-2, the final assay concentrations of inhibitors used were 1000, 800, 600, 400, 200 and 100 nM. For MMP-3, the final assay concentrations of inhibitors used were 5, 4, 3, 2, 1 and 0.5 nM. For MMP-9 and MMP-14, the final assay concentrations of inhibitors used were 5, 4, 3, 2, 1 and 0.5 μM.
(§4) All assays were carried out in a black 96-well plate with a final volume of 100 μl in each well. Inhibitors were dissolved in dimethylsulphoxide (DMSO) to 1 mM. […] For MMP-2, MMP-3, MMP-9 and MMP-14, fluorescence was read every 2 minutes at […] and 393 nm γem for 1 hour using a Fluorostar fluorimeter (BMG) with BIOLISE software. For MMP-1 assays, the filters used were 355 nm γex and 440 nm γem; fluorescence was read every 2 minutes for 1 hour. […]

[2] = target: T2, catalytic domain of human MMP-9 (Homo sapiens, UniProt P14780); assay: MMP-9 fluorogenic inhibition assay; assay type: biochemical; settings: read-out: Calculated Ki(nM) MMP-9
T2 sequence (P14780 with tags, fused parts or gaps DEL216-390 limits assumed): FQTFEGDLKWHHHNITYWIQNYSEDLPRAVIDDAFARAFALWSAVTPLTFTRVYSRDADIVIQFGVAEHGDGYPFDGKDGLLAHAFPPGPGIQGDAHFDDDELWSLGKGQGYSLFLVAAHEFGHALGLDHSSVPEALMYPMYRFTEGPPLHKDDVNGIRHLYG
Protocol: as §1, §2
MMP-2, MMP-3 and MMP-9 inhibition was assayed by incubating activated catalytic domain of human MMP-2, MMP-3 and MMP-9 at 1 nM in assay buffer with 5 μM substrate Mca-Arg-Pro-Lys-Pro-Tyr-Ala-Nva-Trp-Met-Lys(Dnp)-NH2, and six different concentrations of inhibitor. The incubation was performed at 37° C. for 60 minutes.
as §3
as §4, with “well.” for “well. Inhibitors were dissolved in dimethylsulphoxide (DMSO) to 1 mM.”

[3] = test system: circular full thickness lesions; assay: Normal wound healing in pigs, full thickness lesions; assay type: in vivo; settings: 0.3% w/v formulation in CMC hydrogel, 1 ml topically daily, pig
Protocol: The experiment was performed in 3 female SPF pigs (crossbreed of Danish country, Duroc and Yorkshire). At start of the acclimatisation period the body weight of the animals was about 30 kg. The lesions were established on day 1. The animals were anaesthetised with Stresnil® Vet. Janssen, Belgium (40 mg azaperone/ml, 1 ml/10 kg), and Atropin DAK, Denmark (1 mg atropine/ml, 0.05 ml/kg), given as a single intramuscular injection followed by i.v. injection of Hypnodil® Janssen, Belgium (50 mg metomidate/ml, 1-2 ml). Eight circular full thickness lesions (diameter 20 mm) were made on the prepared area, four on each side of the spine. The lesions were numbered 1 (most cranial) to 4 (most caudal) on the left side of the animal, and 5 (most cranial) to 8 (most caudal) on the right side of the animal. After surgery and daily thereafter, the test articles were applied as follows: The dosing volume of each dosing was 1 ml. The dressings were changed on a daily basis. Each lesion was observed daily. The outlines of the wound edge and the epithelial edge will be drawn on sterile transparent sheets, and the areas contained inside the edges were measured planimetrically. The measurement of areas was performed by Scan Beam […] processed to give group mean values and standard deviations where appropriate. Possible outliers were identified, too. Each variable was tested for normality by the Shapiro-Wilk method. In case of normal distribution, two-way analysis of variance was carried out for the variable with the factor: animal and treatment, and if significant difference were detected, possible intergroup differences were assessed using the least-squares means. Otherwise the possible intergroup differences were identified with Wilcoxon Rank-Sum test.

[4] = target: T3, Plasmin (Homo sapiens, UniProt P00747); assay: Plasmin chromogenic inhibition assay (Chromozym-PL); assay type: biochemical; settings: 100 μM compound
T3 construct: Human plasmin, 2 mg/vial (Quadratech, 810665) was reconstituted to 1 mg/ml in buffer; purchased Quadratech 810665
T3 sequence (P00747 581-810 limits assumed): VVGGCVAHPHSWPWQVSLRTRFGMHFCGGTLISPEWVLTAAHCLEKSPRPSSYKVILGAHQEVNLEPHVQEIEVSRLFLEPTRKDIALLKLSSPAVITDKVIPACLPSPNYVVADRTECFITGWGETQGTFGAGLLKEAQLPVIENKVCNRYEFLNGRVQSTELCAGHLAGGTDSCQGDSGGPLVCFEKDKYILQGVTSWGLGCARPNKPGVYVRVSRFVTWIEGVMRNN
T3 sequence (P00747 97-580 partner limits assumed): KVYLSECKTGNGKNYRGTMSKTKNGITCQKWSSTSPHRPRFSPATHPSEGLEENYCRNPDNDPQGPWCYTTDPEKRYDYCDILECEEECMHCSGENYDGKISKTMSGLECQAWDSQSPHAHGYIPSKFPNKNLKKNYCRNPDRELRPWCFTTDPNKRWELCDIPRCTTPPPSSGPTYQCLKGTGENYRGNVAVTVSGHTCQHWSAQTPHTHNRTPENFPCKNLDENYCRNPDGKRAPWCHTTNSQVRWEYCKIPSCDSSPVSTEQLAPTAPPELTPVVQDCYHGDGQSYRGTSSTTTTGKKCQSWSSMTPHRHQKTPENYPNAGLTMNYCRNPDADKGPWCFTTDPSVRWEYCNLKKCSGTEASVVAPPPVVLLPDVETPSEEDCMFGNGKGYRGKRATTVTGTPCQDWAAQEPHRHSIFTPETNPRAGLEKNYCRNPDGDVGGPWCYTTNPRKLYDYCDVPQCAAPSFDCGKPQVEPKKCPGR
Protocol: Plasmin inhibition is assayed by incubating human plasmin at 0.7 μg/ml with 0.2 mM Chromozym-PL (substrate) and various concentrations of inhibitors in uPA assay buffer. Pre-incubation is carried out as for uPA and the incubation is performed at 37° C. for 30 mins.
The incubation was performed at 37° C. for 30 mins. Percentage inhibition was calculated.

[5] = target: T4, uPA (Homo sapiens, UniProt P00749); assay: biochemical; settings: read-out: Percentage inhibition of proteolysis
Protocol: (§5) The extent of proteolysis of the growth factors was assayed by incubating TGF-β2, VEGF, PDGF-BB and KGF-2 with the proteases uPA, plasmin, MMP-3 and MMP-13 in assay buffer (either uPA/plasmin buffer, 50 mM tris-HCl, pH 7.4 or MMP assay buffer, 100 mM Tris, 10 mM NaCl, 10 mM CaCl2, 0.05% (w/v) Brij 35, pH 7.5). […] The growth factors were added to the incubation mixture at a final concentration of […], unless otherwise stated.
(§6) The effects of uPA were determined by incubation at a typical final concentration of 25 μg/ml (1500 U/ml) with each growth factor. The effects of plasmin were determined at a typical final concentration of 0.1 mg/ml by incubation with the individual growth factors in assay buffer. MMP-3 and -13 were incubated at a typical final concentration of 10 nM with the growth factors in assay buffer. Dual protease assays carried out with uPA and MMP-3 together were performed in 100 mM Tris, […], 10 mM CaCl2, 0.05% (w/v) Brij 35, pH 7.5. All incubations were performed in siliconised tubes (Sigma Aldrich, UK).
(§7) The inhibitors used in these experiments were compound 9454, compound 9470 and compound 5214. These were dissolved in DMSO at a concentration of 10 mM. Typical final concentrations for these inhibitors were in the range of 100 μM to 10 nM. Aprotinin was dissolved in the Tris buffer at 10 mg/ml and used at a typical concentration of 10 μg/ml.
All assays were carried out at 37° C. and enzymes were pre-incubated for 15 minutes with or without inhibitor as appropriate, prior to addition of growth factors. After the addition of growth factor, the incubation mixtures were divided into aliquots in siliconised tubes for each time point used. Incubations were carried out over a time course typically of 24 hours, unless otherwise stated. They were stopped by the addition of an equal volume of 2×Novex reducing loading buffer (final concentration 1.09 M glycerol, 141 mM Tris-base, 106 mM Tris-HCl, 73 mM lithium dodecyl sulphate (LDS), 0.5 mM ethylenediaminetetraacetic acid, 0.22 mM Serva Blue G250, 0.175 mM Phenol Red, pH 8.5) and samples prepared for electrophoresis by incubating at 70° C. for 10 minutes.
LDS-PAGE was performed using the NOVEX Xcell II Mini-Cell gel apparatus (Groningen, Holland) using a variation on the method of Laemmli (1970). Equal volumes of samples were loaded onto NuPage 4-12% Bis-tris gels with molecular weight markers (SeeBlue Plus2 Pre-stained Standards). Molecular weight determination was performed by comparison of bands with markers of molecular weight 3, 6, 14, 17, 28, 38, 49, 62, 98 and 188 kDa. […]

[6] = test system: uPA and MMP-3; assay: Inhibition of uPA and MMP-3-mediated KGF-2 degradation (dual protease assay); assay type: biochemical, human; settings: uPA and MMP-3 together / KGF-2; inhibitors used (100 μM), alone or in combination
Protocol: as §5, §6
as §7, with “μg/ml. […]” for “μg/ml.”

[7] = target: T5, human tPA (Homo sapiens, UniProt P00750); assay: tPA chromogenic inhibition assay (S2288); assay type: biochemical; settings: 100 μM compound
T5 construct: Human tPA (one chain) 10 μg/vial (Chromogenix, 821157-039/0); purchased Chromogenix 821157-039/0
T5 sequence (P00750 36-562): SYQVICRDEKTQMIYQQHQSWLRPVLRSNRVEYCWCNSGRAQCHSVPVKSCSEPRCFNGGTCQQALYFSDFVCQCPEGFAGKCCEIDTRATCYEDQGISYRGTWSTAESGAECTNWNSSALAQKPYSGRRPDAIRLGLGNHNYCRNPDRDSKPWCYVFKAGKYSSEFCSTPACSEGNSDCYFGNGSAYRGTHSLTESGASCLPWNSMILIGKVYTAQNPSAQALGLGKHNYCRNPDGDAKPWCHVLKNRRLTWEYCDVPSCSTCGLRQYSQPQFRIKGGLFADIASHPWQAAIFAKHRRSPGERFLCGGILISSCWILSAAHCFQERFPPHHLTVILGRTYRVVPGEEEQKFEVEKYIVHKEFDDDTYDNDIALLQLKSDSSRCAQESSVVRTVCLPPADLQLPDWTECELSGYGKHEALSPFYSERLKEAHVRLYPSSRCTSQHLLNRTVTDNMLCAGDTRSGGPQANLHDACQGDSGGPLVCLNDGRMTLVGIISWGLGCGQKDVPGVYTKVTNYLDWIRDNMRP
Protocol: The method for analysis of tPA inhibition is similar to that for uPA inhibition. The assay utilises final concentrations of tPA of 0.4 µg/ml with 0.1 mg/ml tPA stimulator, 0.4 mM S2288 (substrate) and various concentrations of inhibitors, made up in uPA assay buffer. Pre-incubation is carried out with compound, enzyme and enzyme stimulator, as for uPA, prior to the incubation with substrate. Incubation time is 60 minutes at performed at 37° C. Data analysis is identical to that described above for uPA, using a known Km for tPA of 250 μM.
The incubation was performed at 37° C. for 60 mins. Percentage inhibition was calculated.

[8] = target: T4, uPA; assay: biochemical; settings: for Ki: UPA
Protocol: A pre-incubation of compound with enzyme is carried out for 15 minutes at 37° C., followed by substrate addition and further incubation for 30 minutes at the same temperature. The final assay volume is 200[…]1.
uPA (urokinase type plasminogen activator) inhibition was assayed by incubating human uPA at 33 IU/ml in 75 mM Tris, pH 8.1, 50 mM NaCl with 180 μM S2444 (substrate) and various concentrations of inhibitors. For the primary screen results, the incubation was performed at 37° C. for 30 minutes.
These assays were carried out in a 96-well plate. […] The incubation was performed after an initial pre-incubation at 37° C. for 15 mins and absorbance was read at 405 nm at 0 mins and at the end of the incubation on a […]ax microplate reader (Molecular Devices Corporation), using SOFTMaxPRO software.

[9] = individual determinations, 100 µM
[10] = individual determinations, read-out: % inhibition at 100 μM
[11] = mean ± sem, read-out: % inhibition at 100 μM Mean ± sem

Compound	Ki [1]	Ki [2]	Non-epithelialised area MEAN ([3]; DAY 8)	Non-epithelialised area MEAN ([3]; DAY 9)	Non-epithelialised area MEAN ([3]; DAY 10)	Non-epithelialised area MEAN ([3]; DAY 11)	% inhibition at 100 μM [4, 9]	inhibition at 100 µM [4, 10]	inhibition at 100 µM [4, 11]	inhibition at 0.1 µM [5]	inhibition at 1 µM [5]	inhibition at 10 µM [5]	inhibition at 100 µM [5]	Percentage inhibition of proteolysis [6]	% inhibition at 100 μM [7, 9]	inhibition at 100 µM [7, 10]	inhibition at 100 µM [7, 11]	Ki ([8]; Calculated Ki (nM) Mean ± sem, mean ± sem)	Ki ([8]; Calculated Ki (nM), individual determinations)	Potency as inhibitor of uPA (in words) ([8]; from Table 1)
CNC(=O)[C@@H](Cc1ccccc1)NC(=O)C(CC(C)C)[C@H](CSc1cccs1)C(=O)NO (some centres unmarked) [compound 5719]	3.68 nM	0.47 nM	294.0	248.0	210.1	148.9	–	–	–	–	–	–	–	–	–	–	–	–	–	–
NC(N)=Nc1ncc(Cl)c2ccc(S(=O)(=O)N3CCCC3C(=O)O)cc12 (centres unmarked) [compound 5214]	–	–	–	–	–	–	33% and 28% and 27%	31%	29.8 ± 1.38%	17%	76%	83%	91%	38.6	47% and 50%	38%	45 ± 3.61%	9.9 ± 0.76 nM	11 nM and 9.6 nM and 7.8 nM	potent inhibitor of uPA

Source: patent US20050026836A1, “Composition for the treatment of damaged tissue” (priority 1999, published 2005)
